ChEMBL document CHEMBL1135034, “Design and synthesis of dual inhibitors for matrix metalloproteinase and cathepsin” (Bioorg Med Chem Lett, 2002)

Columns and labels:
Procathepsin L = Procathepsin L (Homo sapiens, UniProt P07711); experiment: Inhibition of Cathepsin L from human kidney; type: tissue-based
Interstitial collagenase = target: T1, Interstitial collagenase (Homo sapiens, UniProt P03956); experiment: Inhibition of Matrix metalloprotease-1
T1 sequence (P03956 whole entry): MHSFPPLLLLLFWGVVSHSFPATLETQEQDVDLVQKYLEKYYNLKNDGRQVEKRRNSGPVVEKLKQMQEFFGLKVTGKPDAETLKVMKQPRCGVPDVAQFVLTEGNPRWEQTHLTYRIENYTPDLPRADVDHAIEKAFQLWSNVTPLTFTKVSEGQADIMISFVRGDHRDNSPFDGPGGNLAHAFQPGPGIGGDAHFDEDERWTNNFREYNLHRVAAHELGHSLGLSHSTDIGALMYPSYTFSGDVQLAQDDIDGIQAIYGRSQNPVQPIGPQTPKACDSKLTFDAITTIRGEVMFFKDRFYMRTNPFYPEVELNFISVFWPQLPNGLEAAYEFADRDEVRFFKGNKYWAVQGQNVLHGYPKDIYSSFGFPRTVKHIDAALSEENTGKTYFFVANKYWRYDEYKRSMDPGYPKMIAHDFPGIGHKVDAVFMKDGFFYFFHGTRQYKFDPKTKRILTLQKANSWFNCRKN

Sequence of Procathepsin L (P07711 whole entry): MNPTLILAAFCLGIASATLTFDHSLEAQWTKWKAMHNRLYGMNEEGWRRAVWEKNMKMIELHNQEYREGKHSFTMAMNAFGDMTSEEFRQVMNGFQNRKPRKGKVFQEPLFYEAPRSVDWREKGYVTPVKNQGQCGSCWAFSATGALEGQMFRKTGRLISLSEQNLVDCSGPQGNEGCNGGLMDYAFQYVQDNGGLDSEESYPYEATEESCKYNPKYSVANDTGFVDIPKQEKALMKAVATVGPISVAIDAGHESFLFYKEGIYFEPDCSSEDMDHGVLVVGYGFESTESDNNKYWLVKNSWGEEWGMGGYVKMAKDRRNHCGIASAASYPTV

IC50 (Procathepsin L)	IC50 (Interstitial collagenase)	Structure (SMILES)
> 1000 nM		CNC(=O)[C@H](Cc1ccccc1)NC(=O)[C@@H](CC(=O)NO)CC(C)C
3 nM	> 1000 nM	C[C@@H](C=O)NC(=O)[C@H](Cc1ccccc1)NC(=O)OCc1ccccc1
4300 nM	12 nM	CC(C)C[C@H](CC(=O)NO)C(=O)N[C@@H](Cc1ccccc1)C(=O)NCC=O
7 nM	1400 nM	CC(C)C[C@H](CC(=O)NO)C(=O)N[C@@H](Cc1ccccc1)C(=O)N[C@H](C=O)CC(C)C
23 nM	47 nM	CC(C)C[C@H](CC(=O)NO)C(=O)N[C@@H](CC(C)C)C(=O)N[C@@H](C)C=O
> 1000 nM	29 nM	CCOC(OCC)[C@H](C)NC(=O)[C@H](Cc1ccccc1)NC(=O)[C@@H](CC(=O)NO)CC(C)C

Structure (SMILES)	IC50 (Procathepsin L)	IC50 (Interstitial collagenase)
CC(C)C[C@H](CC(=O)NO)C(=O)N[C@@H](Cc1ccccc1)C(=O)N[C@@H](C)C=O	15 nM	25 nM
